Reference: patent US20210038607A1, “OXADIAZOLYLTHIOPHENE DERIVATIVES USEFUL AS HISTONE DEACETYLASE INHIBITORS” (Karus Therapeutics Limited, priority 2018, published 2021)

Legend:
Human HDAC8 = target: T1, Human HDAC8 (Homo sapiens, UniProt Q9BY41); test: HDAC8 biochemical assay, AMC-labeled peptide substrate; conditions: read-out: HDAC Isoform IC50 (nM) 8
T1 construct: full length with C-terminal His tag, MW=42.6 kDa; His (C); host or cells: baculovirus expression system
T1 sequence (Q9BY41 1-377): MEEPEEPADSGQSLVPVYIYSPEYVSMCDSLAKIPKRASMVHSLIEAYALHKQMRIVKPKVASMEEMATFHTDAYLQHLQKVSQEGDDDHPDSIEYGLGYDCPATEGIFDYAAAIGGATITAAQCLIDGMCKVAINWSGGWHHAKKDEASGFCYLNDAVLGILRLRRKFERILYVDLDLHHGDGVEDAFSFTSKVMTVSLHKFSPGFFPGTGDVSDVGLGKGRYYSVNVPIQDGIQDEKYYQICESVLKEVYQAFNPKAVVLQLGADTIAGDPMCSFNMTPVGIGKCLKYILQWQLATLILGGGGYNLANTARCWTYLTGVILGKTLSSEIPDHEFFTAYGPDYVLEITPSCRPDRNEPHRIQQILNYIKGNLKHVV
Method in brief: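 Full-length human HDAC8 with C-terminal His tag, baculovirus-expressed, 1 ng/ul, with 100 µM RHK(Ac)K(Ac)AMC substrate in Tris-HCl pH8.0 buffer with BSA, 1% DMSO. Incubated 2 h at 30° C, then developer added to cleave deacetylated substrate; fluorescence read at 360/460 Ex/Em.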

[1] = target: T2, Complex of human HDAC3 and human NCOR2 (Homo sapiens, UniProt O15379); test: HDAC3 biochemical assay, AMC-labeled peptide substrate; conditions: read-out: HDAC Isoform IC50 (nM) 3
T2 construct: full length with C-terminal His tag, MW=49.7 kDa; His (C); host or cells: baculovirus expression system (co-expressed)
T2 sequence (O15379 whole entry, canonical isoform): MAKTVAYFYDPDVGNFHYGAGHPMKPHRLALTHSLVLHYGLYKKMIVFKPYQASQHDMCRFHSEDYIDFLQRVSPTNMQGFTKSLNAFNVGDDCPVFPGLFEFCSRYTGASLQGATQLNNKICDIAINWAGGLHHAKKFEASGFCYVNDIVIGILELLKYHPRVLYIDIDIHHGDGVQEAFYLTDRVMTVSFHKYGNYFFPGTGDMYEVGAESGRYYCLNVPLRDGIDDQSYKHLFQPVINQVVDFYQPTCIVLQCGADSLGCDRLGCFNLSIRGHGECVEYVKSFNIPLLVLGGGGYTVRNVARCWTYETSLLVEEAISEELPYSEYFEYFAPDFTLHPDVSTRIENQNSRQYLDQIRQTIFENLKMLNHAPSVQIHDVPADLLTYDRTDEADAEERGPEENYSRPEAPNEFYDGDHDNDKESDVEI
T2 sequence (Q9Y618 395-489 partner limits assumed): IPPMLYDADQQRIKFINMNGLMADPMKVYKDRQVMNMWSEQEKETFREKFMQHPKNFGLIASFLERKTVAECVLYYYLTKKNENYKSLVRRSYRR
Method in brief: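 Baculovirus-coexpressed His-tagged full-length HDAC3 with GST-NCOR2 (aa 395-489), 0.1 ng/ul, deacetylates 50 μM RHKK(Ac)AMC in Tris-HCl pH8.0 with BSA and 1% DMSO, 1 h at 30° C. Developer then cleaves deacetylated substrate; fluorescence read at 360/460 Ex/Em.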

Human HDAC4 = target: T3, Human HDAC4 (Homo sapiens, UniProt P56524); test: HDAC4 biochemical assay, class IIa-specific substrate; conditions: read-out: HDAC Isoform IC50 (nM) 4
T3 construct: amino acids 627-1085 with N-terminal GST tag; GST (N); host or cells: baculovirus expression system
T3 sequence (P56524 627-1084 limits assumed): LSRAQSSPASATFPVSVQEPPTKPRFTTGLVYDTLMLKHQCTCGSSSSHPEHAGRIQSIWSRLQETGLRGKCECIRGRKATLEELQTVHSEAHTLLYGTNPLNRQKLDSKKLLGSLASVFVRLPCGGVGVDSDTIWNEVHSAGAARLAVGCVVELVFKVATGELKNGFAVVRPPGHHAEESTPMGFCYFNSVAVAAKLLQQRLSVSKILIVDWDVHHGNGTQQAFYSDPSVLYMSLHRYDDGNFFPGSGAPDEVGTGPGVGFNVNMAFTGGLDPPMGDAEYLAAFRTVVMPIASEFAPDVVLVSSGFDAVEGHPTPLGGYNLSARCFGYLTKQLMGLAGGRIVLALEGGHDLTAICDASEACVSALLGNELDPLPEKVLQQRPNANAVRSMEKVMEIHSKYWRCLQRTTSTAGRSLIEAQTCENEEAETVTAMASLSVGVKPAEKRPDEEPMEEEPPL
Method in brief: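 GST-tagged human HDAC4 (aa 627-1085, baculovirus) at 0.004 ng/ul was incubated 30 min at room temperature with 50 μM class IIa-specific substrate BOC-Lys(trifluoroacetyl)-AMC in Tris-HCl pH 8.0 buffer with BSA, 1% DMSO. Developer then released AMC, read at 360/460 nm.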

[2] = system: acetylated histone H3 in A549 lung adenocarcinoma cells; test: Acetylated histone H3 in-cell western (ICW) assay; format: cell-based; conditions: Homo sapiens, 16 h exposure, relative to 40 μM Trichostatin A positive control, read-out: EC50 Ac-histone H3, A549 cells
Method: Acetylated α-Tubulin and Histone H3 in-Cell Western (ICW) Assays
A549 cells were maintained in DMEM (Life Technologies)+10% FBS+2 mM glutamine & penicillin (10 μg/mL) and streptomycin ([…]. 10,000 A549 cells per well were plated into 96 well tissue culture plates (Corning) and incubated at 37° C. overnight in a humidified atmosphere containing 5% CO2 prior to addition of compounds. Compounds (dissolved in 100% DMSO) were diluted into cell culture media at 2× final assay concentration. 2× compound or DMSO (negative control) were added to cells (final DMSO concentration 0.4%). Untreated control wells received media. For acetylated α-tubulin assays, 40 μM scriptaid was used as a positive control. For acetylated histone H3 assays, 40 μM Trichostatin A (TSA) was used as a positive control. Cells were exposed to compound at 37° C. in a humidified atmosphere containing 5% CO2 for 16 h.
Measurement of the impact of compounds on levels of acetylated α-tubulin and histone H3 was performed using specific antibodies and near-infrared immunofluorescent dyes. Briefly, media was removed from wells of assay plates. Cells were washed once with PBS and fixed in 3.7% formaldehyde PBS solution at room temperature for 20 min. Cells were then permeabilised by washing 5 times in 0.1% triton-X-100 PBS at room temperature with gentle agitation for 5 min per wash. Non-specific antibody staining was blocked by the addition of Odyssey blocking buffer (Li-Cor) for 1.5 h at room temperature with gentle agitation. Cells were then incubated with primary antibody (mouse monoclonal anti-acetylated α-tubulin (clone 6-11B-1), Sigma or rabbit polyclonal anti-acetylated histone H3, Millipore) diluted in Odyssey blocking buffer at 4° C. with gentle shaking overnight (no antibody control and secondary antibody only wells were incubated with Odyssey blocking buffer only). Cells were washed five times with 0.1% tween PBS and labelled with secondary antibody (IR dye 800CW-conjugated goat anti mouse IgG or -goat anti rabbit IgG, Li-Cor) and cell stains Sapphire700 (Li-Cor) and Draq5 (Biostatus) diluted in Odyssey blocking buffer at room temperature in the dark with gentle shaking for 1 h (no antibody control wells were incubated with Odyssey blocking buffer only and secondary antibody only with diluted secondary antibody but no cell stains). Cells were washed with 0.1% Tween PBS five times and scanned using a Li-Cor Odyssey SA plate reader in 700 and 800 nm channels. Acetylated α-tubulin or histone H3 signal was normalised to cell number using the cell stain signal. Percentage increase in acetylated α-tubulin or histone H3 after compound treatment over the mean of DMSO treated controls, relative to scriptaid and TSA positive controls, respectively was calculated. EC50 values were calculated using GraphPad Prism software and nonlinear regression with 0% bottom and 100% top constraints.

IC50 (Human HDAC8) [nM]	IC50 [1] [nM]	IC50 (Human HDAC4) [nM]	EC50 [2] [µM]	Structure (SMILES)
≤ 10000	≤ 10000	≤ 10000	≥ 10	O=C(c1cnnc(N(Cc2ccc(-c3noc(C(F)(F)F)n3)s2)c2cnccn2)c1)N1C[C@H]2C[C@@H]1CO2 [Example FW, 5-[(1R,4R)-2-Oxa-5-azabicyclo[2.2.1]heptane-5-carbonyl]-N-(pyrazin-2-yl)-N-({5-[5-(trifluoromethyl)-1,2,4-oxadiazol-3-yl]thiophen-2-yl}methyl)pyridazin-3-amine]
≤ 10000	≤ 10000	≤ 500	≥ 10	O=C(c1ccc(N(Cc2ccc(-c3noc(C(F)(F)F)n3)s2)c2cnccn2)nn1)N1C[C@@H]2C[C@H]1CO2 [Example FE, 6-[(1S,4S)-2-Oxa-5-azabicyclo[2.2.1]heptane-5-carbonyl]-N-(pyrazin-2-yl)-N-({5-[5-(trifluoromethyl)-1,2,4-oxadiazol-3-yl]thiophen-2-yl}methyl)pyridazin-3-amine]
≤ 10000	≤ 10000	≤ 500	≥ 10	O=C(c1ccc(N(Cc2ccc(-c3noc(C(F)(F)F)n3)s2)c2cnccn2)nn1)N1CCC12COC2 [Example FH, 6-{6-Oxa-1-azaspiro[3.3]heptane-1-carbonyl}-N-(pyrazin-2-yl)-N-({5-[5-(trifluoromethyl)-1,2,4-oxadiazol-3-yl]thiophen-2-yl}methyl)pyridazin-3-amine]
≤ 10000	> 10000	≤ 10000	≥ 10	O=C(c1cnnc(N(Cc2ccc(-c3noc(C(F)(F)F)n3)s2)c2cnccn2)c1)N1CCS(=O)(=O)CC1 [Example ED, 4-{6-[(Pyrazin-2-yl)({5-[5-(trifluoromethyl)-1,2,4-oxadiazol-3-yl]thiophen-2-yl}methyl)amino]pyridazine-4-carbonyl}-1λ^6-thiomorpholine-1,1-dione]
≤ 10000	> 10000	≤ 10000	≥ 10	N#Cc1cnnc(N(Cc2ccc(-c3noc(C(F)(F)F)n3)s2)c2cnccn2)c1 [Example EE, 6-[(Pyrazin-2-yl)({5-[5-(trifluoromethyl)-1,2,4-oxadiazol-3-yl]thiophen-2-yl}methyl)amino]pyridazine-4-carbonitrile]
≤ 10000	≤ 10000	≤ 1000	≥ 10	CNC(=O)c1ccc(N(Cc2ccc(-c3noc(C(F)(F)F)n3)s2)c2cnccn2)nn1 [Example FC, N-Methyl-6-[(pyrazin-2-yl)({5-[5-(trifluoromethyl)-1,2,4-oxadiazol-3-yl]thiophen-2-yl}methyl)amino]pyridazine-3-carboxamide]
≤ 10000	≤ 10000	≤ 10000	≥ 10	O=C(c1cnnc(N(Cc2ccc(-c3noc(C(F)(F)F)n3)s2)c2cnccn2)c1)N1CCCC1 [Example EA, N-(Pyrazin-2-yl)-5-(pyrrolidine-1-carbonyl)-N-({5-[5-(trifluoromethyl)-1,2,4-oxadiazol-3-yl]thiophen-2-yl}methyl)pyridazin-3-amine]
≤ 10000	> 10000	≤ 1000	≥ 10	CNC(=O)c1cnnc(N(Cc2ccc(-c3noc(C(F)(F)F)n3)s2)c2cnccn2)c1 [Example DY, N-Methyl-6-[(pyrazin-2-yl)({5-[5-(trifluoromethyl)-1,2,4-oxadiazol-3-yl]thiophen-2-yl}methyl)amino]pyridazine-4-carboxamide]
≤ 10000	> 10000	≤ 10000	≥ 10	CN(C)C1CN(C(=O)c2cnnc(N(Cc3ccc(-c4noc(C(F)(F)F)n4)s3)c3cnccn3)c2)C1 [Example FX, 5-[3-(Dimethylamino)azetidine-1-carbonyl]-N-(pyrazin-2-yl)-N-({5-[5-(trifluoromethyl)-1,2,4-oxadiazol-3-yl]thiophen-2-yl}methyl)pyridazin-3-amine]
≤ 10000	> 10000	≤ 10000	≥ 10	CN1CCN(C(=O)c2cnnc(N(Cc3ccc(-c4noc(C(F)(F)F)n4)s3)c3cnccn3)c2)CC1 [Example EC, 5-(4-Methylpiperazine-1-carbonyl)-N-(pyrazin-2-yl)-N-({5-[5-(trifluoromethyl)-1,2,4-oxadiazol-3-yl]thiophen-2-yl}methyl)pyridazin-3-amine]
≤ 10000	> 10000	≤ 10000	≥ 10	FC(F)(F)c1nc(-c2ccc(CN(c3cnccn3)c3cc(CN4CCOCC4)ccn3)s2)no1 [Example GI, N-{4-[(Morpholin-4-yl)methyl]pyridin-2-yl}-N-({5-[5-(trifluoromethyl)-1,2,4-oxadiazol-3-yl]thiophen-2-yl}methyl)pyrazin-2-amine]
≤ 10000	> 10000	≤ 10000	≥ 10	O=C(c1cnnc(N(Cc2ccc(-c3noc(C(F)(F)F)n3)s2)c2cnccn2)c1)N1C[C@@H]2C[C@H]1CO2 [Example FV, 5-[(1S,4S)-2-Oxa-5-azabicyclo[2.2.1]heptane-5-carbonyl]-N-(pyrazin-2-yl)-N-({5-[5-(trifluoromethyl)-1,2,4-oxadiazol-3-yl]thiophen-2-yl}methyl)pyridazin-3-amine]
≤ 10000	> 10000	≤ 500	≥ 10	O=C(c1ccc(N(Cc2ccc(-c3noc(C(F)(F)F)n3)s2)c2cnccn2)nn1)N1CCCCC1 [Example FG, 6-(Piperidine-1-carbonyl)-N-(pyrazin-2-yl)-N-({5-[5-(trifluoromethyl)-1,2,4-oxadiazol-3-yl]thiophen-2-yl}methyl)pyridazin-3-amine]
≤ 10000	> 10000	≤ 10000	≥ 10	O=C(c1cnnc(N(Cc2ccc(-c3noc(C(F)(F)F)n3)s2)c2cnccn2)c1)N1CCC1 [Example FS, 5-(Azetidine-1-carbonyl)-N-(pyrazin-2-yl)-N-({5-[5-(trifluoromethyl)-1,2,4-oxadiazol-3-yl]thiophen-2-yl}methyl)pyridazin-3-amine]
